Measured values published in US20120172401A1, “BENZIMIDAZOLE DERIVATIVE AND USE AS ANGIOTENSIN II ANTAGONIST” (Takeda Pharmaceutical Company Limited, priority 2005, published 2012).
Values after ≈ are worked out from the molar mass of the structure shown. Read-outs that look alike come from different tables or passages of the source.

Columns and labels:
[1] = Membrane permeability by Parallel Artificial Membrane Permeability Assay (PAMPA); format: in vitro ADME; details: for Papp at 3 h, 50 gmol/L: PAMPA; for permeability in comparison with compound X: in words
Description: The permeability with the artificial membrane was determined by PAMPA under the following conditions. • lipid membrane: GIT mode (pION) • measurement wavelength: 250-400 nm • incubation time: 3 hrs • incubation temperature: 25° C. • Donor: […] 50 gmol/L

[2] = Solubility in JP1, JP2 and GCDC/JP2; format: physicochemical; details: for solubility in comparison with compound X: in words; for solubility at 2 h: thermodynamic from solid, 37° C.
Description: About 2 mg of samples were suspended in 2 mL of JP1, JP2 and 20 mmol/L GCDC/JP2. The suspension was equilibrated at 37° C. for 2 hrs and filtered. The concentration in the solutions was determined by HPLC under the following conditions.
• Detector: UV 254 nm • Column: CAPCELLPAK C18 MG 75×4.6 mm • Mobile Phase A: 0.05 mol/L ammonium formate buffer (pH 3)/MeCN=9:1 • Mobile Phase B: 0.05 mol/L ammonium formate buffer (pH 3)/MeCN=1:9 • Gradient Program: 0→10 min 0→100% B) • 10→15 min 100% B) • 15.1→20 min 0% B) • Column Temp.: 40° C. • Flow Rate: 1 mL/min • Injection vol.: 10 gL

[3] = system: Angiotensin II (AII)-induced vasopressor action; experiment: Inhibitory effect on angiotensin II (AII)-induced vasopressor action in rat; format: in vivo; details: male SD rats, AII 100 ng/kg i.v., p.o., mean±SEM
Description: 11-Week-old male SD rats (JCL: SD, CLEA Japan, Inc.) were anesthetized with pentobarbital (50 mg/kg, i.p.), the femoral artery and femoral vein were isolated, and a polyethylene tube filled with physiological saline containing heparin (200 U/mL) was placed therein. The catheter was subcutaneously fixed in the back of the neck. After recovery period, the rats were subjected to the test.
The arterial catheter was connected to a pressure transducer (2238, NEC San-ei Instruments) and the signals were output on a pen recorder (RECTI-HORIZ 8K, NEC San-ei Instruments) via an amplifier for blood pressure. After the vasopressor action of AII (100 ng/kg, i.v.) was stabilized, a test compound in an equimolar dose to compound A was administered. After 24 hrs, AII was administered, an increase in the blood pressure was measured, and an inhibition rate relative to the value before drug administration was calculated. All compounds were suspended in 0.5% methylcellulose and orally administered at a volume of 2 mL/kg.
The results are shown as mean±SEM (Table 6). The significance between the compound (I) administration group and other compound administration group was determined by the Student's t test (**: p<0.01, *: p<0.05).

insulin sensitivity = experiment: Enhancing effect on insulin sensitivity in rat (glucose clamp technique); format: in vivo; details: spontaneously hypertensive rats, p.o. for 2 weeks, average glucose injection rate 50-90 min, mean±SEM
Description: 24-Week-old male spontaneously hypertensive rats (SLC: SHR/Izm, Japan SLC, Inc.) were used. The body weight, systolic blood pressure, fasting blood glucose level, plasma insulin level and plasma triglyceride level of the rats were measured, and the rats were divided into a vehicle (0.5% methylcellulose solution) administration group and compound (I) (0.12, 0.37 and 1.23 mg/kg) administration groups using them as indices. Compound (I) was suspended in 0.5% methylcellulose solution and orally administered at a volume of 2 mL/kg for 2 weeks.
The insulin sensitivity was evaluated by the glucose clamp technique. To be specific, the rats after fasting overnight were anesthetized with pentobarbital sodium (Nembutal injection, Dainippon Pharmaceutical Co. Ltd., 50 mg/kg i.p.), and catheters (SP45, Natume Seisakusho Co., Ltd.) for blood sampling, insulin (novolin R/100, Novo Nordisk Pharma Co., Ltd.) infusion and glucose (Otsuka Glucose Injection 50%, Otsuka Pharmaceutical Co., Ltd.) infusion were each placed in the right common carotid artery, left femoral vein and right femoral vein. After single intravenous injection of 25 mU/kg of insulin, high insulin state was maintained by infusion using an infusion pump (KDS100, KDS) at an injection rate of 4 mU/kg/min. In addition, glucose in an amount necessary for maintaining the normal blood glucose level was intravenously infused using a different infusion pump (KDS100, KDS). Intravenous injection of glucose was started from 10 min after the start of the injection of insulin, and the glucose injection rate was changed after blood glucose measurement performed every 5 min. The blood glucose level then was quickly measured using a simple blood glucose measurement apparatus (ACCU-CHEK Comfort, Roche diagnostics). Glucose was infused for 90 min., the average value of the glucose injection rate was calculated for 40 min (from 50 min. to 90 min. after the start of the injection) and used as an index (M value) of insulin sensitivity.
The results are shown as mean±SEM (Table 7). […]

[4] = Heat stability of Form A crystal; format: physicochemical; details: in words
[5] = pH 5.5, GIT mode lipid membrane, 3 hrs, 25° C., read-out: PAMPA pH 5.5
[6] = pH 6.2, GIT mode lipid membrane, 3 hrs, 25° C., read-out: PAMPA PH 6.2
[7] = pH 7.4, GIT mode lipid membrane, 3 hrs, 25° C., read-out: PAMPA PH 7.4
[8] = pH 1.2, simulated gastric fluid, JP1, read-out: Solubility JP1
[9] = pH 6.8, fassgf or other biorelevant, 20 mmol/L GCDC/JP2, read-out: Solubility GCDC/JP2
[10] = pH 6.8, fassgf or other biorelevant, JP2, read-out: Solubility JP2

| Papp at 3 h, 50 gmol/L [1, 5] | Papp at 3 h, 50 gmol/L [1, 6] | Papp at 3 h, 50 gmol/L [1, 7] | permeability in comparison with compound X [1] | solubility in comparison with compound X [2] | solubility at 2 h [2, 8] | solubility at 2 h [2, 9] | solubility at 2 h [2, 10] | PAMPA PH 7.4 ([1]; pH 7.4, GIT mode lipid membrane, 3 hrs, 25° C.) | stability to heat [4] | SMILES | suppression rate at 24 hrs after administration ([3]; 0.10 mg/kg) | M value (insulin sensitivity; 0.12 mg/kg) | M value (insulin sensitivity; 0.37 mg/kg) | M value (insulin sensitivity; 1.23 mg/kg) | suppression rate at 24 hrs after administration ([3]; 0.12 mg/kg) |
| --- | --- | --- | --- | --- | --- | --- | --- | --- | --- | --- | --- | --- | --- | --- | --- |
| 46 ×10⁻⁶ cm/s | 20 ×10⁻⁶ cm/s | 8.9 ×10⁻⁶ cm/s | permeable | less soluble | 160 µg/mL (≈ 343 µM) | 27 µg/mL (≈ 57.9 µM) | 2.8 µg/mL (≈ 6 µM) |  |  | COC(=O)c1cccc2nc(C3CC3)n(Cc3ccc(-c4ccccc4-c4noc(=O)[nH]4)cc3)c12 [Compound B, methyl 2-cyclopropyl-1-{[2′-(5-oxo-4,5-dihydro-1,2,4-oxadiazol-3-yl)biphenyl-4-yl]methyl}-1H-benzimidazole-7-carboxylate] | 2.6% |  |  |  |  |
| 13 ×10⁻⁶ cm/s | 0.63 ×10⁻⁶ cm/s |  | less permeable | soluble | 130 µg/mL (≈ 287 µM) | 680 µg/mL (≈ 1500 µM) | 470 µg/mL (≈ 1040 µM) | 0 nm/s |  | O=C(O)c1cccc2nc(C3CC3)n(Cc3ccc(-c4ccccc4-c4noc(=O)[nH]4)cc3)c12 [Compound A, 2-cyclopropyl-1-{[2′-(5-oxo-4,5-dihydro-1,2,4-oxadiazol-3-yl)biphenyl-4-yl]methyl}-1H-benzimidazole-7-carboxylic acid] | −6.0% |  |  |  |  |
|  |  |  |  |  |  |  |  |  |  | Cc1oc(=O)oc1COC(=O)c1cccc2nc(C3CC3)n(Cc3ccc(-c4ccccc4-c4noc(=O)[nH]4)cc3)c12 [Compound (I), (5-Methyl-2-oxo-1,3-dioxol-4-yl)methyl 2-cyclopropyl-1-{[2′-(5-oxo-4,5-dihydro-1,2,4-oxadiazol-3-yl)biphenyl-4-yl]methyl}-1H-benzimidazole-7-carboxylate] |  | 8.2 | 9.0 | 9.8 | 20.2% |
| 21 ×10⁻⁶ cm/s | 19 ×10⁻⁶ cm/s | 9.5 ×10⁻⁶ cm/s |  |  | 27 µg/mL (≈ 47.8 µM) | 52 µg/mL (≈ 92.1 µM) | 8.3 µg/mL (≈ 14.7 µM) |  | stable to heat | Cc1oc(=O)oc1COC(=O)c1cccc2nc(C3CC3)n(Cc3ccc(-c4ccccc4-c4noc(=O)[nH]4)cc3)c12 [Compound X, crystal of (5-methyl-2-oxo-1,3-dioxol-4-yl)methyl 2-cyclopropyl-1-{[2′-(5-oxo-4,5-dihydro-1,2,4-oxadiazol-3-yl)biphenyl-4-yl]methyl}-1H-benzimidazole-7-carboxylate] |  |  |  |  |  |
